≈ marks a conversion by molar mass, not a printed value.
Tests used:
Assay in all cases: ≥ marks a high value that may be exact or a test limit, other limits are often not marked, values filed in µg/mL are converted to µM
[1] = tested on: Escherichia coli ATCC 25922
Klebsiella pneumoniae = tested on: Klebsiella pneumoniae
[2] = tested on: Staphylococcus aureus ATCC 25923
Candida albicans = tested on: Candida albicans
Escherichia coli = tested on: Escherichia coli
Bacillus subtilis = tested on: Bacillus subtilis
Bacillus cereus = tested on: Bacillus cereus
Staphylococcus aureus = tested on: Staphylococcus aureus
[3] = tested on: Staphylococcus aureus ATCC 29213
[4] = tested on: Enterococcus faecalis ATCC 29212
[5] = tested on: Acinetobacter baumannii ATCC 19606

## CC[C@H](C)[C@H](NC(=O)[C@@H](NC(=O)[C@H](Cc1cnc[nH]1)NC(=O)[C@@H]1CCCN1C(=O)[C@@H](NC(=O)[C@H](CC(C)C)NC(=O)[C@H](CO)NC(=O)[C@H](CC(C)C)NC(=O)[C@@H](N)Cc1ccccc1)[C@@H](C)CC)C(C)C)C(=O)N[C@@H](CO)C(=O)N[C@@H](C)C(=O)N[C@H](C(=O)N1CCC[C@H]1C(=O)N[C@@H](Cc1cnc[nH]1)C(=O)N[C@H](C(=O)N[C@H](C(=O)N[C@@H](CC(N)=O)C(=O)N[C@@H](C)C(=O)N[C@@H](CC(C)C)C(=O)N[C@@H](CO)C(=O)N[C@@H](CC(N)=O)C(=O)N[C@@H](CC(C)C)C(N)=O)C(C)C)C(C)C)[C@@H](C)CC [FLSLIPHVISAIPHVVNALSNL]
[1]
  MIC: > 218 µM
Klebsiella pneumoniae
  MIC: > 189 µM
[2]
  MIC: > 218 µM
Candida albicans
  MIC: > 218 µM

## CC[C@H](C)[C@H](N)C(=O)N[C@@H](CC(N)=O)C(=O)N[C@@H](Cc1c[nH]c2ccccc12)C(=O)N[C@@H](CC(C)C)C(=O)N[C@@H](CCCCN)C(=O)N[C@@H](CC(C)C)C(=O)NCC(=O)N[C@@H](CCCCN)C(=O)N[C@@H](CCCCN)C(=O)N[C@H](C(=O)N[C@@H](CC(C)C)C(=O)NCC(=O)N[C@@H](C)C(=O)N[C@H](C(N)=O)[C@@H](C)CC)[C@@H](C)CC [INWLKLGKKILGAI]
Escherichia coli
  MIC: 67.5 µM (≈ 106 µg/mL)
Bacillus subtilis
  MIC: 25 µM (≈ 39.2 µg/mL)

## CC(C)C[C@H](NC(=O)[C@H](CCCCN)NC(=O)[C@H](Cc1ccccc1)NC(=O)[C@@H](NC(=O)[C@H](CCCCN)NC(=O)CNC(=O)[C@H](CC(C)C)NC(=O)[C@@H](N)Cc1ccccc1)C(C)C)C(=O)N[C@@H](C)C(=O)N[C@@H](CO)C(=O)N[C@@H](CCCCN)C(=O)N[C@H](C(=O)N[C@@H](Cc1ccccc1)C(=O)N1CCC[C@H]1C(=O)N[C@@H](CCCCN)C(=O)N[C@H](C(=O)N[C@@H](Cc1ccccc1)C(=O)NCC(=O)N[C@@H](CCCCN)C(=O)N[C@H](C(=O)O)C(C)C)C(C)C)C(C)C [FLGKVFKLASKVFPKVFGKV]
Escherichia coli
  MIC: 7.14 µM (≈ 16 µg/mL)
Bacillus cereus
  MIC: 14.3 µM (≈ 32 µg/mL)
Staphylococcus aureus
  MIC: 28.6 µM (≈ 64 µg/mL)

## CC[C@H](C)[C@H](NC(=O)[C@H](CCCCN)NC(=O)[C@H](CS)NC(=O)[C@H](C)NC(=O)[C@@H](NC(=O)[C@H](Cc1ccccc1)NC(=O)CNC(=O)[C@H](CC(C)C)NC(=O)CNC(=O)[C@@H](NC(=O)[C@H](CCCN=C(N)N)NC(=O)CNC(=O)[C@H](CC(C)C)NC(=O)[C@H](CC(N)=O)NC(=O)[C@H](CCCCN)NC(=O)[C@H](CC(C)C)NC(=O)[C@@H](NC(=O)[C@H](CO)NC(=O)[C@H](CC(C)C)NC(=O)[C@H](CCSC)NC(=O)[C@@H](N)CO)C(C)C)C(C)C)C(C)C)C(=O)N[C@@H](CC(N)=O)C(=O)N[C@@H](CCCCN)C(=O)N[C@@H](CCC(N)=O)C(=O)N[C@@H](CS)C(=O)O [SMLSVLKNLGRVGLGFVACKINKQC]
Escherichia coli
  MIC: 20 µM (≈ 53.6 µg/mL)
Candida albicans
  MIC: 100 µM (≈ 268 µg/mL)
Staphylococcus aureus
  MIC: 100 µM (≈ 268 µg/mL)

## CC[C@H](C)[C@H](N)C(=O)N[C@@H](CC(N)=O)C(=O)N[C@@H](Cc1ccccc1)C(=O)N[C@@H](CC(C)C)C(=O)N[C@@H](CCCCN)C(=O)N[C@@H](CC(C)C)C(=O)NCC(=O)N[C@@H](CCCCN)C(=O)N[C@@H](CCCCN)C(=O)N[C@H](C(=O)N[C@@H](CC(C)C)C(=O)NCC(=O)N[C@@H](C)C(=O)N[C@@H](CC(C)C)C(N)=O)[C@@H](C)CC [INFLKLGKKILGAL]
Escherichia coli
  MIC: > 100 µM
Bacillus subtilis
  MIC: 22.5 µM (≈ 34.4 µg/mL)

## CC(C)C[C@H](NC(=O)[C@H](CCCCN)NC(=O)[C@H](Cc1ccccc1)NC(=O)[C@@H](NC(=O)[C@H](CCCCN)NC(=O)CNC(=O)[C@H](CC(C)C)NC(=O)[C@@H](N)Cc1ccccc1)C(C)C)C(=O)N[C@@H](C)C(=O)N[C@@H](CO)C(=O)N[C@@H](CCCCN)C(=O)N[C@H](C(=O)N[C@@H](Cc1ccccc1)C(=O)N[C@@H](CCCCN)C(=O)N[C@@H](C)C(=O)N[C@H](C(=O)N[C@@H](Cc1ccccc1)C(=O)NCC(=O)N[C@@H](CCCCN)C(=O)N[C@H](C(=O)O)C(C)C)C(C)C)C(C)C [FLGKVFKLASKVFKAVFGKV]
Escherichia coli
  MIC: 7.23 µM (≈ 16 µg/mL)
Bacillus cereus
  MIC: 3.61 µM (≈ 8 µg/mL)
Staphylococcus aureus
  MIC: 1.81 µM (≈ 4 µg/mL)

## CC[C@H](C)[C@H](NC(=O)[C@H](CC(C)C)NC(=O)[C@H](C)NC(=O)[C@@H]1CCCN1C(=O)[C@H](CC(C)C)NC(=O)CN)C(=O)N[C@@H](CO)C(=O)N[C@@H](Cc1c[nH]c2ccccc12)C(=O)N[C@@H](CO)C(=O)N[C@@H](CCCCN)C(=O)N[C@@H](CCCN=C(N)N)C(=O)N[C@@H](CCCCN)C(=O)N[C@@H](CCCN=C(N)N)C(=O)N[C@@H](CCC(N)=O)C(=O)N[C@@H](CCC(N)=O)C(N)=O [GLPALISWSKRKRQQ]
Escherichia coli
  MIC: > 53.4 µM
Bacillus subtilis
  MIC: ≥ 40 µM
Staphylococcus aureus
  MIC: 53.3 µM (≈ 94.1 µg/mL)

## CC(C)C[C@H](NC(=O)[C@H](CCCCN)NC(=O)[C@H](Cc1ccccc1)NC(=O)[C@@H](NC(=O)[C@@H](NC(=O)CNC(=O)[C@H](CC(C)C)NC(=O)[C@@H](N)Cc1ccccc1)C(C)C)C(C)C)C(=O)N[C@@H](C)C(=O)N[C@@H](CO)C(=O)N[C@@H](CCCCN)C(=O)N[C@H](C(=O)N[C@@H](Cc1ccccc1)C(=O)NCC(=O)N[C@@H](C)C(=O)N[C@H](C(=O)N[C@@H](Cc1ccccc1)C(=O)NCC(=O)N[C@@H](CCCCN)C(=O)N[C@H](C(=O)O)C(C)C)C(C)C)C(C)C [FLGVVFKLASKVFGAVFGKV]
Escherichia coli
  MIC: > 121 µM
Bacillus cereus
  MIC: 7.57 µM (≈ 16 µg/mL)
Staphylococcus aureus
  MIC: 3.79 µM (≈ 8 µg/mL)

## CC(C)C[C@H](NC(=O)[C@H](CCCCN)NC(=O)[C@H](Cc1ccccc1)NC(=O)[C@@H](NC(=O)[C@@H](NC(=O)[C@H](CCCCN)NC(=O)[C@H](CC(C)C)NC(=O)[C@@H](N)Cc1ccccc1)C(C)C)C(C)C)C(=O)N[C@@H](C)C(=O)N[C@@H](CO)C(=O)N[C@@H](CCCCN)C(=O)N[C@H](C(=O)N[C@@H](Cc1ccccc1)C(=O)N1CCC[C@H]1C(=O)N[C@@H](C)C(=O)N[C@H](C(=O)N[C@@H](Cc1ccccc1)C(=O)NCC(=O)N[C@@H](CCCCN)C(=O)N[C@H](C(=O)O)C(C)C)C(C)C)C(C)C [FLKVVFKLASKVFPAVFGKV]
Escherichia coli
  MIC: 14.4 µM (≈ 32 µg/mL)
Bacillus cereus
  MIC: 7.19 µM (≈ 16 µg/mL)
Staphylococcus aureus
  MIC: 1.8 µM (≈ 4 µg/mL)

## CC(C)C[C@H](NC(=O)[C@@H](NC(=O)[C@H](CCCN=C(N)N)NC(=O)[C@H](CO)NC(=O)[C@H](CC(C)C)NC(=O)[C@H](C)NC(=O)[C@H](CC(N)=O)NC(=O)CNC(=O)[C@H](CC(C)C)NC(=O)[C@H](C)NC(=O)CNC(=O)[C@H](CC(C)C)NC(=O)[C@@H](N)Cc1ccccc1)C(C)C)C(N)=O [FLGALGNALSRVL]
[1]
  MIC: > 64 µM
[3]
  MIC: 32 µM (≈ 42.5 µg/mL)
[4]
  MIC: > 64 µM
[5]
  MIC: > 64 µM

## CC[C@H](C)[C@H](NC(=O)[C@H](CCCCN)NC(=O)[C@H](CCCCN)NC(=O)[C@H](Cc1c[nH]c2ccccc12)NC(=O)[C@@H](NC(=O)[C@@H](N)CC(N)=O)[C@@H](C)CC)C(=O)N[C@@H](Cc1ccccc1)C(=O)N[C@@H](CCC(=O)O)C(=O)N[C@@H](CCCCN)C(=O)N[C@H](C(=O)N[C@@H](CCCCN)C(=O)N[C@@H](CC(N)=O)C(=O)N[C@@H](CC(C)C)C(=O)N[C@H](C(N)=O)C(C)C)C(C)C [NIWKKIFEKVKNLV]
Escherichia coli
  MIC: 25 µM (≈ 44 µg/mL)
Bacillus subtilis
  MIC: 20 µM (≈ 35.2 µg/mL)

## CC[C@H](C)[C@H](N)C(=O)N[C@@H](CC(N)=O)C(=O)N[C@@H](Cc1c[nH]c2ccccc12)C(=O)N[C@@H](CCCCN)C(=O)N[C@@H](CCCCN)C(=O)N[C@H](C(=O)N[C@@H](C)C(=O)N[C@@H](CO)C(=O)N[C@H](C(=O)NCC(=O)N[C@@H](CCCCN)C(=O)N[C@@H](CCC(=O)O)C(=O)N[C@H](C(=O)N[C@@H](CC(C)C)C(=O)N[C@@H](CCCCN)C(=O)N[C@@H](C)C(N)=O)C(C)C)[C@@H](C)CC)[C@@H](C)CC [INWKKIASIGKEVLKA]
Escherichia coli
  MIC: 75 µM (≈ 135 µg/mL)
Bacillus subtilis
  MIC: ≥ 70 µM

## CC[C@H](C)[C@H](NC(=O)[C@H](CC(N)=O)NC(=O)[C@H](CCCCN)NC(=O)[C@H](CC(C)C)NC(=O)[C@H](Cc1ccccc1)NC(=O)[C@@H](NC(=O)[C@H](CCCCN)NC(=O)[C@H](Cc1c[nH]c2ccccc12)NC(=O)[C@H](CO)NC(=O)[C@H](C)N)C(C)C)C(=O)NCC(=O)N[C@@H](CCCCN)C(=O)N[C@@H](C)C(=O)N[C@@H](C)C(=O)NCC(=O)N[C@@H](CCCCN)C(=O)N[C@@H](C)C(=O)N[C@H](C(=O)N[C@@H](CC(C)C)C(=O)N[C@@H](CC(N)=O)C(=O)N[C@@H](CO)C(=O)N[C@H](C(=O)N[C@H](C(=O)N[C@@H](CC(=O)O)C(=O)N[C@@H](CCSC)C(=O)N[C@H](C(=O)N[C@@H](CC(N)=O)C(=O)N[C@@H](CCC(N)=O)C(N)=O)C(C)C)[C@@H](C)O)C(C)C)C(C)C [ASWKVFLKNIGKAAGKAVLNSVTDMVNQ]
[1]
  MIC: 2.68 µM (≈ 8.01 µg/mL)
Klebsiella pneumoniae
  MIC: 10.7 µM (≈ 32 µg/mL)
[2]
  MIC: 2.68 µM (≈ 8.01 µg/mL)
Candida albicans
  MIC: 10.7 µM (≈ 32 µg/mL)
Staphylococcus aureus
  MIC: 2.68 µM (≈ 8.01 µg/mL)

## CC[C@H](C)[C@H](N)C(=O)N[C@@H](CC(N)=O)C(=O)N[C@@H](Cc1c[nH]c2ccccc12)C(=O)N[C@@H](CO)C(=O)N[C@@H](CO)C(=O)N[C@H](C(=O)N[C@@H](Cc1ccccc1)C(=O)N[C@@H](CCC(=O)O)C(=O)N[C@@H](CO)C(=O)N[C@H](C(=O)N[C@@H](CO)C(=O)N[C@@H](CC(N)=O)C(=O)N[C@@H](CC(C)C)C(=O)N[C@H](C(N)=O)C(C)C)C(C)C)[C@@H](C)CC [INWSSIFESVSNLV]
Escherichia coli
  MIC: > 100 µM
Bacillus subtilis
  MIC: ≥ 100 µM

Source: DBAASP
